Experiment [1] has as its target human GLP-1 receptor (hGLP-1R) (Homo sapiens, UniProt P43220). The experiment in a line: cAMP production (HTRF) in CHO cells expressing hGLP-1R. Type of experiment: cell-based. Further details: expressed in transfected cells. To be noted: for EC50: Table 6, peptides modified at position 17, cAMP in CHO hGLP-1R cells, geometric mean, read-out: hGLP-1R EC50; for % Relative Potency Ratio: Table 6, % GLP-1R activity relative to GLP-1 / % GlucR activity relative to glucagon. In short, it runs like this:
(§1)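 Cells were resuspended in assay buffer at batch-optimized density, typically 1×10^5 cells/mL for hGLP-1R and 2×10^5 cells/mL for hGCGR. After 30 min incubation at room temperature with compound, cAMP was measured by two-step HTRF. EC50 values came from 4-parameter logistic fits of % Delta F.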
On the technique in general: Cyclic AMP is a second messenger, typically raised through Gs and lowered through Gi signalling.

The target in experiment [2] is human glucagon receptor (hGCGR) (Homo sapiens, UniProt P47871). The experiment in a line: cAMP production (HTRF) in CHO cells expressing hGCGR. Type of experiment: cell-based. Further details: expressed in transfected cells. To be noted: Table 6, peptides modified at position 17; cAMP in CHO hGCGR cells; geometric mean; read-out: hGluc-R EC50. In short, it runs like this: as §1

The EC50 is the midpoint of the concentration-response curve.

Starred links: 1 amine or outer side, 2 acyl side, 3 side chain; linkers in the order of their positions; H or OH if unused. Non-standard residues stand in square brackets, D forms with d. Residues, ends and D or L forms follow the SMILES beside them. Groups on a side chain read outwards from the residue. *: point of attachment. C20 diacid = O=C(O)CCCCCCCCCCCCCCCCCCC(=O)*; γGlu = O=C(O)[C@H](CCC(=O)[*:2])N[*:1]; αMeF = C[C@](N)(Cc1ccccc1)C(=O)O; AEEA = NCCOCCOCC(=O)O; Aib = CC(C)(N)C(=O)O

human GLP-1 receptor (hGLP-1R), sequence (P43220 24-463): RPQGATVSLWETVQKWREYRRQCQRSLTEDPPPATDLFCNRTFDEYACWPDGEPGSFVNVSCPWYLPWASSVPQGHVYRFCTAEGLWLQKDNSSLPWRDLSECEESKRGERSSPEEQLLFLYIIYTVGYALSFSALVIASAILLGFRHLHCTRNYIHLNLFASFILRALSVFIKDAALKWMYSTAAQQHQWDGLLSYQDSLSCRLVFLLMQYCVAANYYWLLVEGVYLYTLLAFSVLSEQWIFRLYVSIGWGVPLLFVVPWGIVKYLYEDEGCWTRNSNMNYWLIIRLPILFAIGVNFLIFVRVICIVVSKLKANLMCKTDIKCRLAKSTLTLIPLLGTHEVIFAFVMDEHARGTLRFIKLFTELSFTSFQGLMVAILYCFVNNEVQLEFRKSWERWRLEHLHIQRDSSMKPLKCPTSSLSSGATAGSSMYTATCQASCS
human glucagon receptor (hGCGR), sequence (P47871 26-477): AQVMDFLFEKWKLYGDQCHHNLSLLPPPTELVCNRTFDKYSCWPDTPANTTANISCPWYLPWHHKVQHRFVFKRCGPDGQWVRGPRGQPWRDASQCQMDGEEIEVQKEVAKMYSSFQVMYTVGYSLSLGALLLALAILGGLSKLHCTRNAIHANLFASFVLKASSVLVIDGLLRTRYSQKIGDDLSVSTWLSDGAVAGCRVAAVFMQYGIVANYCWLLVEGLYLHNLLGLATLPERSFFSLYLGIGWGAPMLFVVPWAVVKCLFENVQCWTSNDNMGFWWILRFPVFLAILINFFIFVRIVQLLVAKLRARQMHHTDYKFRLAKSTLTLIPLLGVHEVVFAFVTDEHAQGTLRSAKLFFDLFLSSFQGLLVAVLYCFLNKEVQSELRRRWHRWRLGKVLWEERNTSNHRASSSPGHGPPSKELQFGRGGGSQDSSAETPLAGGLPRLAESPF

For the molecule `CC(C)C[C@H](NC(=O)[C@H](Cc1c[nH]c2ccccc12)NC(=O)[C@H](CCC(N)=O)NC(=O)[C@@H](NC(=O)[C@H](Cc1ccccc1)NC(=O)[C@H](CC(=O)O)NC(=O)[C@H](CCC(N)=O)NC(=O)[C@H](C)NC(=O)[C@H](CCCNC(=N)N)NC(=O)[C@H](CCCCNC(=O)COCCOCCNC(=O)COCCOCCNC(=O)CC[C@H](NC(=O)CCCCCCCCCCCCCCCCCCC(=O)O)C(=O)O)NC(=O)[C@@H](NC(=O)[C@H](CC(=O)O)NC(=O)[C@H](CC(C)C)NC(=O)[C@](C)(Cc1ccccc1)NC(=O)[C@H](CCCCN)NC(=O)[C@H](CO)NC(=O)[C@@H](NC(=O)[C@H](CC(=O)O)NC(=O)[C@H](CO)NC(=O)[C@@H](NC(=O)[C@H](Cc1ccccc1)NC(=O)[C@@H](NC(=O)CNC(=O)[C@H](CCC(N)=O)NC(=O)C(C)(C)NC(=O)[C@@H](N)Cc1c[nH]cn1)[C@@H](C)O)[C@@H](C)O)C(C)C)[C@@H](C)O)C(C)C)C(=O)N[C@@H](CC(C)C)C(=O)N[C@@H](CCC(=O)O)C(=O)NC(C)(C)C(=O)N[C@@H](CCCCN)C(N)=O` [Peptide 505] (H-H[Aib]QGTFTSDVSK[αMeF]LDTK([AEEA-AEEA-γGlu-C20 diacid])RAQDFVQWLLE[Aib]K-NH2), in experiment [1], the EC50 came to 0.0421 nM and the “% Relative Potency Ratio” value stood at 9.0. Besides, the EC50 in experiment [2] was 0.191 nM.

Regarding `CC(C)C[C@H](NC(=O)[C@H](Cc1c[nH]c2ccccc12)NC(=O)[C@H](C)NC(=O)[C@@H](NC(=O)[C@H](Cc1ccccc1)NC(=O)[C@H](CC(=O)O)NC(=O)[C@H](CCCNC(=N)N)NC(=O)[C@H](C)NC(=O)[C@H](CCCNC(=N)N)NC(=O)[C@H](CCCCNC(=O)COCCOCCNC(=O)COCCOCCNC(=O)CC[C@H](NC(=O)CCCCCCCCCCCCCCCCCCC(=O)O)C(=O)O)NC(=O)[C@@H](NC(=O)[C@H](CC(=O)O)NC(=O)[C@H](CC(C)C)NC(=O)[C@](C)(Cc1ccccc1)NC(=O)[C@H](CCCCN)NC(=O)[C@H](CO)NC(=O)[C@@H](NC(=O)[C@H](CC(=O)O)NC(=O)[C@H](CO)NC(=O)[C@@H](NC(=O)[C@H](Cc1ccccc1)NC(=O)[C@@H](NC(=O)CNC(=O)[C@H](CCC(N)=O)NC(=O)C(C)(C)NC(=O)[C@@H](N)Cc1c[nH]cn1)[C@@H](C)O)[C@@H](C)O)C(C)C)[C@@H](C)O)C(C)C)C(=O)N[C@@H](CC(C)C)C(=O)N[C@@H](CCC(=O)O)C(=O)NC(C)(C)C(=O)NCC(=O)O` [Peptide 506] (H-H[Aib]QGTFTSDVSK[αMeF]LDTK([AEEA-AEEA-γGlu-C20 diacid])RARDFVAWLLE[Aib]G-OH; N-terminus assumed), in experiment [1], the EC50 was found to be 0.162 nM and the “% Relative Potency Ratio” value is on record as 1.8. In experiment [2], the EC50 is 0.149 nM.

For the molecule `CC(C)C[C@H](NC(=O)[C@H](Cc1c[nH]c2ccccc12)NC(=O)[C@H](C)NC(=O)[C@@H](NC(=O)[C@H](Cc1ccccc1)NC(=O)[C@H](CC(=O)O)NC(=O)[C@H](CCCNC(=N)N)NC(=O)[C@H](C)NC(=O)[C@H](CCCNC(=N)N)NC(=O)[C@H](CCCCNC(=O)COCCOCCNC(=O)COCCOCCNC(=O)CC[C@H](NC(=O)CCCCCCCCCCCCCCCCCCC(=O)O)C(=O)O)NC(=O)[C@@H](NC(=O)[C@H](CC(=O)O)NC(=O)[C@H](CC(C)C)NC(=O)[C@](C)(Cc1ccccc1)NC(=O)[C@H](CCCCN)NC(=O)[C@H](CO)NC(=O)[C@@H](NC(=O)[C@H](CC(=O)O)NC(=O)[C@H](CO)NC(=O)[C@@H](NC(=O)[C@H](Cc1ccccc1)NC(=O)[C@@H](NC(=O)CNC(=O)[C@H](CCC(N)=O)NC(=O)C(C)(C)NC(=O)[C@@H](N)Cc1c[nH]cn1)[C@@H](C)O)[C@@H](C)O)C(C)C)[C@@H](C)O)C(C)C)C(=O)N[C@@H](CC(C)C)C(=O)N[C@@H](CCC(=O)O)C(=O)NC(C)(C)C(=O)NCC(N)=O` [Peptide 507], in experiment [1], the EC50 was 0.0529 nM and the “% Relative Potency Ratio” value is reported as 3.2. In addition, the EC50 in experiment [2] is 0.0866 nM.

The values are drawn from patent US20250353891A1 (MEDIMMUNE LIMITED, priority 2022, published 2025).
